This note sets out measurements from patent US20220202882A1, “EFFECT OF COMBINATION OF BIFIDOBACTERIUM AND BERBERINE ON PRE-DIABETES AND TYPE 2 DIABETES” (The Fourth Military Medical University, priority 2018, published 2022).

Counter-ions that a name gives are not always drawn.

The test deals with pre-diabetic and type 2 diabetes mellitus patients. Description: Clinical trial: fasting plasma glucose (FPG). The format is in vivo, human. The settings on record: for Effect on fasting plasma glucose level (in words) / Post-treatment FPG - pre-treatment FPG, mean value: 16 weeks of treatment; for Effect on fasting plasma glucose level (in words): Kruskal-Wilcox test; for Post-treatment FPG - pre-treatment FPG, mean value / Post-treatment FPG, mean value / Pre-treatment FPG, mean value: FAS; for Post-treatment FPG, mean value: after 16 weeks of treatment; for Pre-treatment FPG, mean value: baseline before treatment. On the procedure: From June 2015 to October 2018, a double-blind, randomized, and parallel-controlled trial, studying the effects of the combined use of Bifidobacterium and berberine on pre-diabetic and type 2 diabetes mellitus patients, was conducted in 10 research centers in Xi'an, Yan'an and Shangluo of Shaanxi province, etc., including the First Affiliated Hospital of the Fourth Military Medical University. 3) Diagnosed with impaired glucose tolerance or type 2 diabetes mellitus (5.6≤fasting plasma glucose (FPG)<8.0 mmol/L at V1 stage; 6.1≤fasting plasma glucose (FPG)<8.0<mmol/L or 7.8≤2-hour postprandial venous blood glucose (2 h-PPG)<17 mmol/L at V2 stage, please see V1 and V2 in Table 1 below); The trial included an enrollment stage of 2 weeks and a treatment stage of 16 weeks. After passing the first visit 1 (see V1 in Table 1), the subjects entered the enrollment stage, i.e., 2 weeks of lifestyle intervention, followed by a re-screening (see V2 in Table 1). The subjects were subjected to a 16-week course of treatment after passing the screening. See Table 1 for the detailed screening parameters. After the enrollment stage, the baseline data of the 300 successfully enrolled subjects were collected. Meanwhile, the subjects started to receive lifestyle guidance, and were randomly divided into four groups for 16 weeks of treatments. 1) Bifidobacterium group: the subjects were administered with Bifidobacterium capsules (Livzon Pharmaceutical Group Inc., batch no.: 20141013), 0.35 g/capsule, each capsule containing 50,000,000 viable bacteria (Bifidobacterium adolescentis DM8504), 2 capsules/time, 2 times/day, plus berberine placebo tablets (Northeast Pharma Group Shenyang First Pharma Co., Ltd., Lot no.: 20150101, containing 80.2% microcrystalline cellulose, 9.4% pregelatinized starch, 6.4% sodium carboxymethyl starch, 1% magnesium stearate, and 3% copovidone), 0.1 g/tablet, 5 tablets/time, 2 times/day. 2) Berberine group: the subjects were administered with berberine tablets (Northeast Pharma Group Shenyang First Pharma Co., Ltd., Lot no.: 130917, each tablet weighted 0.165 g and contained 0.1 g active berberine ingredient (berberine hydrochloride), with the same excipients as the placebo tablets), 5 tablets/time, 2 times/day, plus Bifidobacterium placebo capsules (Livzon Pharmaceutical Group Inc., Lot no.: 141001, specifically containing 0.348 g spray-dried lactose, and 0.002 g magnesium stearate), 0.35 g/capsule, 2 capsules/time, 2 times/day. 3) Combination Group: the subjects were administered with Bifidobacterium capsules, 0.35 g/capsule, each capsule containing 50,000,000 viable bacteria (B. adolescentis DM8504), 2 capsules/time, 2 times/day, plus berberine tablets, 0.1 g/tablet, each tablet containing 0.1 g active berberine ingredient (berberine hydrochloride), 5 tablets/time, 2 times/day. 4) Control group: the subjects were administered with Bifidobacteria placebo capsules, 0.35 g/capsule, 2 capsules/time, 2 times/day, plus berberine placebo tablets, 0.1 g/tablet, 5 tablets/time, 2 times/day. Bifidobacterium capsules were taken after meals and berberine tablets were taken before meals. After the sample testing was finished, 1) Chi-Squared test and t-test were used to evaluate the intergroup balance of the baseline data including the demographic characteristics and pre-treatment indicators, wherein the baseline data referred to those collected at the second visit, before the formal administration, the data collected at the first visit on the enrollment stage were used instead if the data at the second visit was lacking; 2) two-way disordered CM-CH11, Kruska-Wilcox test, etc. were used for analysis and intergroup comparison of pre- and post-treatment indicators such as fasting plasma glucose (FPG), HbA1c, plasma glucose at 2 hours post OGTT (2-h PPG), blood pressure, blood lipids, body weight and BMI; 3) adverse events and hypoglycemia events were described in terms of the type, frequency and relevance with the drugs, for safety evaluation. […]

Consider `COc1ccc2cc3[n+](cc2c1OC)CCc1cc2c(cc1-3)OCO2` [Berberine, berberine hydrochloride], for which the “Effect on fasting plasma glucose level (in words)” value is “lowered the fasting plasma glucose level significantly”; the “Post-treatment FPG - pre-treatment FPG, mean value” is -0.2450 mmol/L; the “Post-treatment FPG, mean value” turned out to be 6.1300 mmol/L; the “Pre-treatment FPG, mean value” is on record as 6.4700 mmol/L.

With Bifidobacterium, the “Effect on fasting plasma glucose level (in words)” value was “no evident effect”; the “Post-treatment FPG - pre-treatment FPG, mean value” came out at 0.0282 mmol/L; the “Post-treatment FPG, mean value” is reported as 6.4300 mmol/L; the “Pre-treatment FPG, mean value” is given as 6.4000 mmol/L.
